Measurements: US10701934B2, “Synergistic weed control from applications of penoxsulam and benzobicyclon or clomazone and benzobicyclon” (Dow AgroSciences LLC, priority 2013, dated 2020)

Tests used:
[1] = test system: Early Watergrass, Echinochloa oryzoides (ECHOR); assay: In-water application in transplanted rice in the greenhouse, visual weed control of ECHOR; format: in vivo; conditions: 22 days after application, 0-100 scale
Description: (§1) Weed seeds or nutlets of the desired test plant species were planted in puddled soil (mud) prepared by mixing a shredded, non-sterilized mineral soil (50.5 percent silt, 25.5 percent clay, and 24 percent sand, with a pH of about 7.6 and an organic matter content of about 2.9 percent) and water at a 1:1 volumetric ratio. The prepared mud was dispensed in 365 milliliter (mL) aliquots into 16-ounce (oz.) non-perforated plastic pots with a surface area of 86.59 square centimeters (cm^2) leaving a headspace of 3 centimeters (cm) in each pot. Rice seeds were planted in Sun Gro MetroMix® 306 planting mixture, which typically has a pH of 6.0 to 6.8 and an organic matter content of about 30 percent, in plastic plug trays. Seedlings at the second or third leaf stage of growth were transplanted into 860 mL of mud contained in 32-oz. non-perforated plastic pots with a surface area of 86.59 cm^2 4 days prior to herbicide application. The paddy was created by filling the headspace of the pots with 2.5 to 3 cm of water. When required to ensure good germination and healthy plants, a fungicide treatment and/or other chemical or physical treatment was applied. The plants were grown for 4-22 days in a greenhouse with an approximate 14 hour (h) photoperiod which was maintained at about 29° C. during the day and about 26° C. during the night. Nutrients were added as Osmocote® (17:6:10, N:P:K+minor nutrients) at 2 grams (g) per 16-oz. pot and 4 g per 32-oz. pot. Water was added on a regular basis to maintain the paddy flood, and supplemental lighting was provided with overhead metal halide 1000-Watt lamps as necessary. The plants were employed for testing when they reached the first through fourth true leaf stage. Treatments of penoxsulam and benzobicyclon consisted of penoxsulam and benzobicyclon, applied alone or in combination. Treatments of clomazone and benzobicyclon consisted of clomazone and benzobicyclon, applied alone or in combination. Penoxsulam was formulated as Grasp® SC, clomazone was formulated as Command® 3ME, and benzobicyclon was formulated as 3.5% flowable or as technical grade material. Treatment requirements for each compound or herbicidal component were calculated based upon the rates being tested, the concentration of active ingredient or acid equivalent in the formulation, an application volume of 2 mL per component per pot, and an application area of 86.59 cm^2 per pot. For formulated compounds, a measured amount was placed in an individual 100 or 200 mL glass vial and was dissolved in a volume of 1.25% volume per volume (v/v) Agri-Dex® crop oil concentrate to obtain application solutions. […] The results measured at 22 days following application of the compositions are provided in Table 1 (Penoxsulam and Benzobicyclon) and Table 2 (Clomazone and Benzobicyclon).

[2] = test system: Purple Nutsedge, Cyperus rotundus (CYPRO); assay: In-water application in transplanted rice in the greenhouse, visual weed control of CYPRO; format: in vivo; conditions: 22 days after application, 0-100 scale
Description: as §1, with “Nutrients were added as Osmocote® (17:6:10, N:P:K+minor nutrients) at 2 grams (g) per 16-oz. pot and 4 g per 32-oz. pot. Water was added on a regular basis to maintain the paddy flood, and supplemental lighting was provided with overhead metal halide 1000-Watt lamps as necessary. The plants were employed for testing when they reached the first through fourth true leaf stage. Treatments of penoxsulam and benzobicyclon consisted of penoxsulam and benzobicyclon, applied alone or in combination. Treatments of clomazone and benzobicyclon consisted of clomazone and benzobicyclon, applied alone or in combination. Penoxsulam was formulated as Grasp® SC, clomazone was formulated as Command® 3ME, and benzobicyclon was formulated as 3.5% flowable or as technical grade material.” left out

[3] = Benzobicyclon 100 g ai/ha alone

## COc1cnc(OC)n2nc(NS(=O)(=O)c3c(OCC(F)F)cccc3C(F)(F)F)nc12 [Penoxsulam]
[1]; Penoxsulam 10 g ai/ha alone
  % Visual Weed Control 22DAA ECHOR Observed: 85%

## CS(=O)(=O)c1ccc(C(=O)C2=C(Sc3ccccc3)C3CCC(C3)C2=O)c(Cl)c1 (stereo not shown) [Benzobicyclon, 3-(2-chloro-4-mesylbenzoyl)-2-phenylthiobicyclo[3.2.1]oct-2-en-4-one]
[2]; Benzobicyclon 50 g ai/ha alone
  % Visual Weed Control 22DAA CYPRO Observed: 10%
[2]; [3]
  % Visual Weed Control 22DAA CYPRO Observed: 30%
[1]; Benzobicyclon 25 g ai/ha alone
  % Visual Weed Control 22DAA ECHOR Observed: 0%
[1]; Benzobicyclon 50 g ai/ha alone
  % Visual Weed Control 22DAA ECHOR Observed: 10%
[1]; [3]
  % Visual Weed Control 22DAA ECHOR Observed: 15%

## CC1(C)CON(Cc2ccccc2Cl)C1=O [Clomazone, 2-[(2-chlorophenyl)methyl]-4,4-dimethyl-3-isoxazolidinone]
[2]; Clomazone 112 g ai/ha alone
  % Visual Weed Control 22DAA CYPRO Observed: 0%
